Entries after “also recorded” stand apart in the source; their conditions may differ. Like-named read-outs stand apart in the source and are kept apart here.
Legend:
[1] = Excretion study: effect of salicylamide on aspirin excretion; conditions: for Rate order of excretion of metabolites: first 24 hours, urine
Protocol: (§1) Male adult Sprague-Dawley rats (300-325 gm) obtained from Charles River Breeding Laboratory, N. Wilmington, Mass. were quarantined for one week. All animals were identified by ear punching. Food and water were provided ad libitum. The animals were maintained on rodent lab chow diet in a controlled environment with 50% humidity and 12 hour light/dark cycle.
The dose of radiolabeled ASA administered was 5 μCi per rat. Rats were fasted overnight prior to the administration of the treatments.
Rats were gavaged with the treatment solution and were immediately placed in Silverman metabolic glass chambers (Bioserv, Inc., Frenchtown, N.J.), one rat per chamber. Rats were administered water ad libitum while food was withheld until 1.5 hours following treatment administration. Urine was collected at 8, 16, 24, 48 and 72 hours. Feces were collected in preweighed clean plastic cups at 24, 48 and 72 hours after dosing. The expired air was channeled through a series of activated charcoal tubes to trap any radiolabeled compound that is excreted via the lungs and the tubes were collected at the end of the study 72 hours after dosing.
The urine samples were collected and the volume was measured using a 10 ml graduated glass pipette. The urine was shaken, and 100 μl of each urine sample were pipetted in a scintillation vial with 15 ml of Aquasol-2 for radioactivity assessment. The rest of the urine was stored at -70° C. for later analysis of its content of salicylic acid (SA) and salicyluric acid (SUA), the major metabolites of ASA.
Fecal weight was determined for each time-point collection and deionized water was added to feces in a ratio of feces:water, 1:3 (w/w).
The activated charcoal was carefully emptied in small glass tubes and extracted with 1 ml of methanol and the tubes were then centrifuged at 1800×g for 15 minutes.
Urine was further studied for its content of the ASA metabolites, namely SA and SUA. Waters HPLC system (Waters Chromatography, Division of Millipore, Milford, Mass.) with 3.9 mm×15 cm NOVA-PAK 4 μm silica packing steel column, C-18 Guard-Pak, and Milli-Q(tm) Millipore water filtration system were used for the characterization of SA and SUA. An isocratic methodology was developed and the separation was optimal by a mobile phase of 2% acetic acid/methanol, 70:30, at a flow rate of 1 ml/min. and a detection wavelength of 240 nm. One hundred μl of the collected 8 and 16 hour urine samples were diluted with 4 ml of methanol/mobile phase mixture (1:1) while the dilution was only with 2 ml for the 24, 48 and 72 hour urine samples.
The fractions under the specific retentiontimes of SA and SUA were collected in scintillation vials containing 15 ml of the scintillation cocktail and the radioactivity content was counted. The retention times of SA and SUA were determined by injection of authentic standard solution. Corrections have been made for the quenching effect of the mobile phase.
Student-t test and one way analysis of variance (ANOVA) followed by Scheffe multiple range test were used where appropriate. The accepted level of significance of difference was p<0.05.

[2] = Tissue distribution of 14C-salicylamide (parent) by HPLC; format: in vivo, male Sprague-Dawley rats; conditions: for concentration at 1.5 h: rat
Description: Forty-eight rats were divided into two groups.
The rats were anesthetized by light diethyl ether inhalation.

[3] = Tissue distribution of aspirin and its metabolites (SA, SUA, GA, DBA) by HPLC after 14C-aspirin; conditions: for Aspirin level in tissues studied (plasma, lung, liver, heart, kidney): 1.5 hours after 14C-ASA alone or with SAM, low and high doses
Protocol: as §1
Forty-eight rats were divided into two groups. The first group of rats was administered ASA, SAM or their combination in a dose approximately equal (w/w) to that in the commercially available combinations, e.g., BC® formula, when administered to humans, i.e., 10 and 3 mg/kg of ASA and SAM, respectively. The second group was administered double the dosage received by the first group.
The rats were anesthetized by light diethyl ether inhalation. A blood sample of nearly 3 ml was collected by cardiac puncture 1.5 hours after oral administration. The blood was transferred to chilled polyethylene tubes containing 30 μl of 50% (w/w) potassium fluoride to prevent hydrolysis of ASA. A 300 μl aliquot was pipetted in a scintillation vial to study the distribution in whole blood. The rest of the collected blood was immediately centrifuged at 1800×g for 10 minutes at 4° C. and the plasma was decanted. 100 μl of the plasma were pipetted in a scintillation vial for measurement of the total radioactivity and the rest of the plasma was stored immediately at -70° C. for later study of the distribution of the metabolites.
Liver, kidney, plasma, lung and heart were stored at -70° C. for later study of their content of the metabolites of aspirin or salicylamide using an HPLC method. Liver, kidney and plasma of the rats treated with aspirin or the combination were also investigated for the presence of salicyl glucuronide conjugates by using HPLC and acid hydrolysis assays.
A Waters HPLC system (Waters Chromatography, Division of Millipore, Milford, Mass.) was used, consisting of: Waters 680 automated gradient controller, two model 510 pumps, model U6K universal liquid chromatography injector, Lambda Max model 481 variable wavelength UV/Vis absorbance detector, Data Module 730, 3.9 mm×15 cm NOVA-PAK 4 μm silica packing steel column, C-18 Guard-Pak, Hamilton syringes of 10, 100, and 250 μl capacity (Hamilton Co., Reno, Nev.), and Milli-Q(tm) Millipore water filtration system #CDOFO 1205 (Waters, Division of Millipore, Milford, Mass.).
1--For the analysis of ASA and its metabolites in tissues: the mobile phase was 2% acetic acid/methanol, 95:5, at a flow rate of 1.4 ml/minute.
The detection wavelength was 240 nm and the sensitivity of the detector was 0.02 AUFS (Absorbance Unit Full Scale).

[4] = oral 14C-ASA 10 mg/kg, alone or with SAM 3 mg/kg
[5] = rat, in vivo, po, 10 mg/kg, 72 h

**Q.** Which “Rate order of excretion of metabolites” value [1] does the source give for `CC(=O)Oc1ccccc1C(=O)O` [ASA, acetylsalicylic acid] here?
**A.** first-order rate fashion

**Q.** And the “Change of 14C-SAM in lung by ASA” value ([2]; low and high dose combinations)?
**A.** significantly lower

**Q.** What about the “Change of 14C-SAM in kidney by ASA” value ([2]; low dose combination) of the same compound?
**A.** significantly reduced

**Q.** And the “Increase of 14C-SAM in liver with ASA” value ([2]; lower dose combination)?
**A.** about 50%

**Q.** And the “Aspirin level in tissues studied (plasma, lung, liver, heart, kidney)” value [3]?
**A.** not detected in the plasma

**Q.** What about the “Aspirin level in tissues studied (plasma, lung, liver, heart, kidney)” value ([3]; listed as aspirin) of the same compound?
**A.** not detected

**Q.** For `NC(=O)c1ccccc1O` [SAM, Salicylamide], which “Urinary SA, SUA and SA glucuronide, 0-8 hours” value ([1]; ASA coadministered with SAM vs ASA alone) is on record?
**A.** higher in the urine

**Q.** What about the “Effect on urinary 14C, 0-8 hour period” value ([1]; SAM coadministered with 14C-ASA) of the same compound?
**A.** increased

**Q.** What about the “Effect on urinary 14C, 8-28 hour period (so in the source)” value ([1]; SAM coadministered with 14C-ASA vs 14C-ASA alone) of the same compound?
**A.** significantly decreased

**Q.** And the “Urinary content of SA, SUA and SA glucuronide after 0-8 hours” value ([1]; SAM coadministration vs 14C-ASA alone)?
**A.** decreased

**Q.** What about the “Effect on pattern of excretion of ASA metabolites in urine” value ([1]; SAM with 14C-ASA, low doses) of the same compound?
**A.** did not affect the pattern of excretion of ASA metabolites in urine

**Q.** What about the “Parent SAM in plasma” value ([2]; 1.5 hours, 14C-SAM alone and with ASA, low and high doses) of the same compound?
**A.** not detected

**Q.** What about the “Change of 14C-SA in kidney (low and high dose) and liver (high dose)” value ([3]; SAM with 14C-ASA) of the same compound?
**A.** not markedly altered

**Q.** What does the source list for `CC(=O)Oc1ccccc1[14C](=O)O` [^14 C-ASA]?
**A.** 14C radioactivity recovered in urine ([1]; 14C-ASA alone or in combination with SAM): Almost all the ^14 C radioactivity; SA share of the radioactivity excreted in urine ([1]; 14C-ASA alone or with SAM): more than 50%; SUA share of the metabolites in urine ([1]; 14C-ASA alone or with SAM): approximately 15%; 14C in expired air ([1]; 14C-ASA or 14C-CO2): No radioactivity was found; Absorption from the gut ([1]; 14C-ASA oral): essentially a complete absorption; Rate order of excretion of metabolites [1]: first-order rate pattern; Urinary excretion of 14C, 0-72 hr [1, 4]: 3055 ± 23 μg ^14 C; Urinary excretion of 14C, 8-16 hr [1, 4]: 619 ± 124 μg ^14 C; Urinary excretion of 14C, 16-24 hr [1, 4]: 92 ± 26 μg ^14 C; Urinary excretion of 14C, 24-48 hr [1, 4]: 60 ± 19 μg ^14 C; Urinary excretion of 14C, 48-72 hr [1, 4]: 11 ± 3 μg ^14 C; Urinary excretion of 14C, 0-8 hr ([1]; oral 14C-ASA 10 mg/kg, alone or with SAM 3 mg/kg, mean ± SE, n=6): 2227 ± 138 μg ^14 C; Bioavailability of 14C ([1]; rat, in vivo, po, 10 mg/kg): 100%; 14C excreted in feces [1, 5]: 1.0 ± 0.1 percentage of the dose; 14C excreted in urine [1, 5]: 100.2 ± 0.8 percentage of the dose; Recovery of the administered dose [1, 5]: 100%; Total Recovery of 14C [1, 5]: 101.7 ± 0.8 percentage of the dose; SUA in lung, heart, liver and plasma ([3]; 14C-ASA alone and with SAM): not detected; also recorded: The liver had no detectable level of SUA; Difference in kidney 14C-SUA with or without SAM ([3]; low or high dose): no significant difference; Gentisic acid and 2,3-dihydroxybenzoic acid in tissues ([3]; low or high dose): not detected

**Q.** Which “14C-SAM in heart” value ([2]; 14C-SAM 3 mg/kg with or without ASA 10 mg/kg) does the source give for `N[14C](=O)c1ccccc1O` [^14 C-SAM] here?
**A.** not detected

**Q.** And the “14C-SAM in heart” value ([2]; 1.5 hours, 14C-SAM 6 mg/kg alone or 14C-SAM/ASA 6/20 mg/kg)?
**A.** detected in the heart

**Q.** What about the concentration at 1.5 h ([2]; heart, oral 14C-SAM 6 mg/kg, alone or with ASA 20 mg/kg, ND = not detected, read-out: 14C-salicylamide in heart) of the same compound?
**A.** 2.9 ± 1.7 ng/g

**Q.** And the concentration at 1.5 h ([2]; kidney, oral 14C-SAM 3 mg/kg, alone or with ASA 10 mg/kg, read-out: 14C-salicylamide in kidney)?
**A.** 152 ± 13.4 ng/g

**Q.** What about the concentration at 1.5 h ([2]; kidney, oral 14C-SAM 6 mg/kg, alone or with ASA 20 mg/kg, read-out: 14C-salicylamide in kidney) of the same compound?
**A.** 181 ± 18.3 ng/g

**Q.** And the concentration at 1.5 h ([2]; liver, oral 14C-SAM 3 mg/kg, alone or with ASA 10 mg/kg, read-out: 14C-salicylamide in liver)?
**A.** 16.6 ± 5.3 ng/g

**Q.** And the concentration at 1.5 h ([2]; liver, oral 14C-SAM 6 mg/kg, alone or with ASA 20 mg/kg, read-out: 14C-salicylamide in liver)?
**A.** 29.4 ± 3.3 ng/g

**Q.** And the concentration at 1.5 h ([2]; lung, oral 14C-SAM 3 mg/kg, alone or with ASA 10 mg/kg, read-out: 14C-salicylamide in lung)?
**A.** 17.1 ± 3 ng/g

**Q.** What about the concentration at 1.5 h ([2]; lung, oral 14C-SAM 6 mg/kg, alone or with ASA 20 mg/kg, read-out: 14C-salicylamide in lung) of the same compound?
**A.** 41.9 ± 3.9 ng/g

From patent publication US5389621A, “Method of enhancing the anticoagulant effects of aspirin using salicylamide” (University of Medicine and Dentistry of New Jersey, priority 1994, dated 1995)
